Data on 86 compounds can be found in a melting point compilation (Tetko et al.; mined from patent text by program, amines drawn as free bases though some values may be those of a salt).

For orientation: melting point means the temperature, or range, at which the solid turns liquid. Compound `CN(C)C(=O)c1ccccc1CC(=O)Nc1cccc(/C=C/c2nc(C3CCC3)cs2)c1` gave a melting point of 125 to 127 °C.
The result for `Cc1cc(Cl)ccc1N=CN(C)SN(c1ccccc1)c1ccccc1` reads 78 to 79 °C; that for `O=C(Nc1ccc(F)nc1)OCC(Cl)(Cl)Cl`, 114 to 115 °C.
In the case of `N#Cc1c(N)sc(C=O)c1Sc1ccccc1` it was 230 °C; in that of `Cc1ccc(S(=O)(=O)Oc2ccc(S(=O)(=O)c3c(C(C)C)cn4ccccc34)cc2)cc1`, 180 to 183 °C; in that of `COc1cccc2oc(-c3ccc(C)cc3)cc(=O)c12`, 169 to 171 °C.
In the case of `CS(=O)(=O)c1ccc(-c2cc(C(F)(F)F)nn2-c2ccc(F)cc2)cc1F` it was 228 to 229 °C; in that of `COc1ccc(CN(C)CCOc2ccc(NC(=O)c3cccc4c(=O)c5ccccc5[nH]c34)cc2)cc1`, 146 °C; in that of `CN1Cc2c(-c3nc(CCl)co3)ncn2-c2ccsc2C1=O`, 200 to 206 °C.
`Cc1cccc(NC(=O)NC2N=C(c3ccccc3F)c3ccccc3N(Cc3nc4ccccc4o3)C2=O)c1` (racemic) displayed a melting point of 209 to 210 °C.
For `O=C(O)COc1ccc(SCc2cc(-c3ccc(Cl)cc3)on2)c2c1CCC2`, the melting point was in the range of 112 to 114 °C.
In the case of `CN(C)c1cc2c(cc1-c1ccc3cc(C=C4SC(=S)N(CC(=O)O)C4=O)ccc3c1)C(C)(C)CCC2(C)C`, the melting point was 194 to 196 °C.
The result for `O=C(NC1CCN(CCCOC(=O)c2ccccc2)CC1)c1ccccc1` reads 146 to 147 °C; that for `CC(C)CCC1(c2ccccc2)CC(O)=C(Sc2ccccc2)C(=O)O1` (stereo unspecified), 154 to 155 °C; that for `CN1CCN(NC(=O)c2cc([N+](=O)[O-])cc3c2OCCO3)CC1`, 210 °C.
The result for `COc1cc(C2=C(c3cn(CCCNC(=O)C(CO)NC(=O)OC(C)(C)C)c4ccccc34)C(=O)NC2=O)cc(OC)c1OC` (stereo unspecified) reads 112 to 114 °C; that for `CCOC(=O)C(C(=O)OCC)c1csc(N)n1`, 99.5 to 100 °C; that for `NC(=O)N(O)Cc1cccs1`, 112 °C.
In turn, `N#Cc1ccccc1/C=C/C=O` yielded a melting point of 107 to 110 °C.
For the compound `CCOC(=O)c1sc2ccc(Cl)cc2c1C`, the melting point is 92.5 to 94 °C.
The result for `CCOC(=O)C1=C(NC(=O)Nc2ccc(Cl)c(C(=O)OCC)c2)CCCC1` reads 119 to 122 °C; that for `O=C(O)c1cnn2c(C(F)F)cc(-c3ccc(OC(F)(F)F)cc3)nc12`, 231 °C.
The result for `CN(C)c1cc(Br)cc(S(=O)(=O)c2ccc([N+](=O)[O-])cc2)c1` reads 166 to 168 °C; that for `COc1ccc(CC(=O)O)c(C(=O)O)c1`, 175 to 177 °C.
In the case of `CN(Cc1ccc(COc2cccc3c2CN(C2CCC(=O)NC2=O)C3=O)cc1)c1ccccc1` (stereo unspecified) it was 201 to 203 °C; in that of `Cn1ccc2ccc(NC(=O)/C=C/c3ccc(C(C)(C)C)cc3)cc21`, 95 °C; in that of `CC(C)n1cc(-c2nc(C#N)c(N)nc2-c2ccccc2)ccc1=O`, 204 °C.
For `NS(=O)(=O)c1ccc(-c2cc(-c3c[nH]nc3-c3cccc(C4CC4)n3)ccc2F)cc1`, the melting point fell in the range of 225 to 226 °C.
In the case of `CC(C)(O)c1ccc(C#N)cc1` it was 45 to 47 °C; in that of `COc1cc(C(C)C)ccc1C1(Cl)C(=O)c2cccc([N+](=O)[O-])c2C1=O` (stereo unspecified), 81 to 84 °C.
Turning to `NS(=O)(=O)c1ccc(NC(=O)c2cccnc2SSc2ncccc2C(=O)Nc2ccc(S(N)(=O)=O)cc2)cc1`, the melting point turned out to be 280 °C.
Consider `Cc1cc(Cl)n2nc(CN=[N+]=[N-])nc2n1`, for which the melting point lay within 130 to 132 °C.
In turn, `CCOC(=O)/C(=N\OCC(=O)N(CC)CC)c1csc(N)n1` came in with a melting point of 161 °C.
In the case of `CN(C)C(=O)Cc1c(C(=O)c2ccccc2)[nH]c2cc(Cl)ccc12` it was 190 to 193 °C; in that of `O=S(=O)(c1ccccc1)N1CCC(C(O)(c2ccc(F)cc2)C2CCCCC2)CC1` (stereo unspecified), 106 to 109 °C; in that of `CC(C)(C)c1cc(/C=C/C=C/C(=O)NCCN2CCC(c3c[nH]c4ccccc34)CC2)cc(C(C)(C)C)c1O`, 108 to 115 °C.
With `CCCCCCCC(=O)N1CCc2nnc(NN)cc2C1`, the melting point was 164 to 166 °C.
The result for `COC12CC(c3nnc(-c4cncc(Br)c4)o3)CN(C)C1Cc1cn(C)c3cccc2c13` (stereo unspecified) reads 183 to 186 °C; that for `COCCNc1ccc(N2CCOC2=O)cc1[N+](=O)[O-]`, 148 °C; that for `CCOC(=O)c1ncc2[nH]c3ccc(Oc4ccc(OC)cc4)cc3c2c1COC`, 154 °C.
`CC(=O)NC1CCC(=O)N2CCCC(C(=O)NC(CC(=O)OC(C)(C)C)C(=O)COC(=O)c3c(Cl)cccc3Cl)N2C1=O` (stereo unspecified) gave a melting point of 80 to 125 °C.
In the case of `CCNC(=O)NS(=O)(=O)c1cc2c(cc1OC)OCC(NC(=O)c1cc(Cl)ccc1OC)C2` (stereo unspecified) it was 233 to 234 °C; in that of `O=C(Nc1nnn(CC2CC2)n1)C(c1ccccc1)c1ccccc1`, 147 to 148 °C; in that of `CC(C)(C)NS(=O)(=O)c1cn(CCOC2CCCCO2)c2ccccc12` (stereo unspecified), 125 to 132 °C.
Compound `Brc1ccc2c(c1)CCOC2CCN1CCN(c2ccc(OCc3ccccc3)cc2)CC1` (stereo unspecified) registered a melting point of 87 to 90 °C.
In the case of `CCOC(=O)C(C)(C)Sc1ccc(NCCn2c(C)nc3ccccc3c2=O)cc1` it was 226 to 228 °C.
Compound `CCc1ccc(OC(C)(C)C(=O)O)cc1OCCCc1cn(-c2ccc(C(F)(F)F)cn2)nc1C(C)C` had a melting point of 115 to 116 °C.
In the case of `Cc1cc2c(cc1CN1CCN(C)CC1)-c1[nH]nc(-c3ccsc3)c1C2` it was 210 to 212 °C.
Compound `CN1CCN(c2cccc3c2C[C@H](NC(=O)Cc2ccccc2)CC3)CC1` registered a melting point of 151 to 152 °C.
The result for `CCc1nccn1Cc1ccc2c(c1)-c1[nH]nc(-c3ccsc3)c1C2` reads 238 to 239 °C.
In the case of `Cn1cc(C(=O)Nc2ccccc2-c2cc(Cl)cc(Cl)c2)c(C(F)(F)F)n1` it was 101 to 105 °C.
As for `CC(C)(C)C(CS(=O)(=O)c1ccc(Oc2ccc(OC(F)(F)F)cc2)cc1)N(O)C=O` (stereo unspecified), the melting point stood at 160 °C.
`COC1CN(c2ccc(NC(=O)OCc3ccccc3)cc2F)C1` showed a melting point of 95 to 96.5 °C.
The compound `COc1ccc(CNn2nnc3c(Cl)ncnc32)cc1` had a melting point of 110 to 112 °C.
In the case of `CN(C)CCC1CSc2c(C(=O)O)c(=O)c3cc(F)c(N4CCN(C)CC4)cc3n21` (stereo unspecified) it was 221 to 223 °C; in that of `CC(=O)c1ccc(OC(C)CCCCC(=O)O)cc1O` (stereo unspecified), 116 to 118 °C; in that of `CC(C)(C)OC(=O)N1CCN(c2ccc(Oc3cc(Cl)ccc3[N+](=O)[O-])cc2)CC1`, 124 to 125 °C.
The result for `O=c1[nH]c(CCl)nc2cc3c(cc12)CCC3` reads 270 to 272 °C; that for `O=C(NC(O)C(=O)O)c1c(F)cccc1F` (stereo unspecified), 125 to 127 °C.
With `O=C(O)CCCCCN(C(=O)c1ccc(Cl)cc1Cl)c1ccccc1-c1ccccc1`, the melting point was in the range of 112 to 113 °C.
`Cc1ccc(C2CC(C(N)=O)=NN2c2ccc(S(N)(=O)=O)cc2)cc1` (stereo unspecified) came in with a melting point of 210 to 215 °C.
The result for `COc1ccc(-c2c3ccccc3cc3sc4ccccc4c23)cc1` reads 220 to 221 °C.
In turn, `O=C(O)CCc1ccc(Oc2ccc3c(c2)S(=O)(=O)N=C2CCCN23)cc1` had a melting point of 216 to 222 °C.
In the case of `O=C1CC(OC(CBr)CBr)N1` (stereo unspecified) it was 80 to 80.5 °C.
The result for `CNC(=O)C1=CC(CF)(CF)Oc2cc(Cl)c(Cl)cc21` reads 141 to 142 °C; that for `CCOC(=O)CNC(=O)N(O)C1CC(c2ccc(F)cc2)C1` (stereo unspecified), 130 to 132 °C; that for `COC(=O)Cc1ccc(CNC(=O)C2Cc3ccccc3N2S(=O)(=O)c2ccc(-c3ccc(F)cc3Cl)cc2)cc1` (stereo unspecified), 70 °C.
In the case of `Nc1ncc(-c2cccnc2)cc1[N+](=O)[O-]` it was 226 to 228 °C; in that of `CC1=C(C(=O)OCCN2C(=O)c3ccccc3C2=O)C(c2cccc([N+](=O)[O-])c2)C(C(=O)OCCN2C(=O)c3ccccc3C2=O)=C(C)N1`, 92 to 94 °C.
`CCCCCCC(=O)c1ccc(OCC(=O)O)c(Cl)c1Cl`: the melting point was 104 to 105 °C.
In the case of `O=C(CBr)c1ccc(OCC(=O)N2CCOCC2)cc1` it was 105 to 107 °C; in that of `O=S(=O)(c1ccccc1)N1CCC(Nc2nc(OCC(F)(F)F)nc(-n3ccnc3)n2)CC1`, 201 to 203 °C.
In the case of `Cc1ccc(C(=O)c2cc3cc(Br)ccc3n2C)cc1` it was 169 to 171 °C.
As for `O=C(N1CCCC1)C1(N2CCCCC2)CCNCC1`, the melting point worked out at 144 °C.
The result for `NC(=O)c1c(Cl)c(-c2ccccc2)n2c1CN(S(=O)(=O)c1ccc(Cl)c(Cl)c1)CC2` reads 192 to 193 °C; that for `CN1c2cccc(CC(=O)O)c2Sc2c(C(N)C(=O)OCC3c4ccccc4-c4ccccc43)cccc21` (stereo unspecified), 217 to 219 °C; that for `O=C(NCc1ccc(Cl)cc1)c1cn(Cc2ccccc2)c2sc(CN3CCOCC3)cc2c1=O`, 225 to 226 °C.
`O=C(O)COc1ccc2c(-c3ccco3)noc2c1Cl`: the melting point lay in the range of 230 to 233 °C.
In the case of `C=C(C)C(=O)OCCCc1ccc2c(c1)N(C(C)(C)C)N(O)N2`, the melting point is 62 to 63.2 °C.
Consider `Cc1nn(-c2ccc(C(F)(F)F)cn2)cc1COc1cccc(OC(C)(C)C(=O)O)c1`, for which the melting point was in the range of 152 to 153 °C.
The result for `N#CCCC(C#N)CSc1ccc2ccccc2c1` (stereo unspecified) reads 52 to 55 °C.
In the case of `COc1cc(COc2cc(NC(C)=O)c(Cl)cc2C(=O)CCCCCl)cc(OC)c1` it was 135 to 137 °C; in that of `Cc1ccccc1Nc1ccccc1C=C(Br)Br`, 65 to 67 °C; in that of `C[N+]([O-])=C(Cn1ccnc1)c1ccco1`, 120 to 123 °C.
Consider `NC(=S)N1CCN(c2nc3cccccc-3n2)CC1`, for which the melting point was 245 to 247 °C.
The result for `O=C(Nc1ccc(C(=O)O)cc1)OCc1nccn1-c1cc2cc(C(=O)O)c(=O)[nH]c2cc1Cl` reads 249 to 251 °C.
